Data published in patent US9486394B2, “Pharmaceutical foam” (STIEFEL WEST COAST, LLC, priority 2003, dated 2016).

Tests used:
[1] = Stability with different can linings (Example 2); assay type: physicochemical; conditions: 4 weeks
Method: Low buffer levels at a pH of 4.5 or 6.5, including unbuffered pH 4.5, were tested in cans with either epoxy-phenolic, polyamide-imide (PAM), or Micoflex linings. Some of the PAM-lined cans were scratched internally to check for corrosion on bare aluminum. Cans were stored at 4° C., 40° C., and 50° C. for 4 weeks and then examined.

[2] = Stability, citrate buffer pH, epoxy-phenolic lined cans (Example 1); conditions: 1 month
Method: In this study, a citrate buffer solution was used to adjust the pH of the mixture to pH 4.5, pH 5.5, and pH 6.5 using four different buffer concentrations (i.e., 0, 0.1, 0.3, 0.5%) and two alternative emollients or humectants, i.e., propylene glycol and glycerin. The containers were stored at 50° C. for 1 month and then examined.

SMILES: CCC[C@@H]1C[C@@H](C(=O)N[C@@H]([C@H]2O[C@H](SC)[C@H](OP(=O)(O)O)[C@@H](O)[C@H]2O)[C@H](C)Cl)N(C)C1 [clindamycin phosphate]
- clindamycin phosphate stability in PAM-lined container ([1]; FIG. 4): unexpectedly high
- degradation of clindamycin phosphate ([1]; 40° C.): moderate degradation
- degradation of clindamycin phosphate ([1]; 50° C.): relatively severe degradation
- clindamycin phosphate degradation at higher buffer levels ([2]; citrate buffer 0.5%, 0.3% vs 0.1%, 0.0%, 50° C.): higher amount of clindamycin phosphate degradation
- stability of clindamycin phosphate as a function of pH ([2]; pH 4.5, 5.5, 6.5, 50° C., FIG. 3): more stable at a lower pH level
